# According to PubChem BioAssay AID1358 (Sanford-Burnham Center for Chemical Genomics, 2008):
# Active and inactive are the calls of the source.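 The calls were made as follows: active = no phosphorylated p38 MAPK band on western blot after an ER stress trigger, matching the untreated control; inactive = the rest.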
# Test system: CSM14.1 cells, thapsigargin, phospho-p38 Western blot
# Assay: inhibition of thapsigargin-induced p38 phosphorylation, late-stage follow-up, mechanism study for ER stress cell death project, CSM14.1 cells, Western blot (AID 1358)
row,Structure (SMILES),outcome
1,CC1(C)CC(=O)C2=C(C1)Nc1ccccc1NC2c1ccc(-c2ccccc2)cc1 (stereo unspecified),active
2,CCOc1cc(C2Nc3ccccc3NC3=C2C(=O)CC(c2ccc(OC)cc2)C3)cc(Cl)c1O (stereo unspecified),active
3,COc1ccc(C2CC(=O)C3=C(C2)Nc2ccccc2NC3c2cccc(Oc3ccccc3)c2)cc1OC (stereo unspecified),active
4,CCCOc1ccc(C2Nc3ccccc3NC3=C2C(=O)CC(c2ccc(OC)c(OC)c2)C3)cc1 (stereo unspecified),active
5,COc1ccc(C2CC(=O)C3=C(C2)Nc2ccccc2NC3c2cc(C)ccc2C)cc1 (stereo unspecified),active
6,COc1ccc(C2CC(=O)C3=C(C2)Nc2ccccc2NC3c2cccc(C(F)(F)F)c2)cc1OC (stereo unspecified),active
7,O=C1CC(c2ccccc2)CC2=C1C(c1c(F)cccc1Cl)Nc1ccccc1N2 (stereo unspecified),active
8,CCOc1cccc(C2Nc3ccccc3NC3=C2C(=O)CC(c2ccc(OC)cc2)C3)c1 (stereo unspecified),active
9,COc1ccc(C2CC(=O)C3=C(C2)Nc2ccccc2NC3c2ccccc2C(F)(F)F)cc1OC (stereo unspecified),active
10,COc1ccc(C2CC(=O)C3=C(C2)Nc2ccccc2NC3c2cccc(Br)c2)cc1OC (stereo unspecified),active
11,CSc1ccc(C2Nc3ccccc3NC3=C2C(=O)CC(c2ccccc2)C3)cc1 (stereo unspecified),active
